Entries after “also recorded” stand apart in the source; their conditions may differ. The star is where a group is joined. pNA = O=[N+]([O-])c1ccc(N*)cc1; Cbz = O=C(OCc1ccccc1)*
How the values were obtained:
[1] = mixed human dental plaque bacteria; conditions: cited from earlier work
[2] = bacterial suspension in saliva ion buffer (OD620 1.2); conditions: up to 24 h
[3] = Whole plaque (Mixture of bacteria) suspension in saliva ion buffer; conditions: human, up to 24 h
[4] = WSA-8 (Rothia aeria HOT-188) bacterial suspension in saliva ion buffer; conditions: up to 24 h
[5] = WSA-26 (Rothia mucilaginosa HOT-681) bacterial suspension in saliva ion buffer; conditions: up to 24 h
[6] = WSA-2B (Rothia mucilaginosa HOT-681) bacterial suspension in saliva ion buffer; conditions: up to 24 h
[7] = WSA-7A (Streptococcus mitis HOT-677) bacterial suspension in saliva ion buffer; conditions: up to 24 h
[8] = WSAN-25 (Veilonella atypica HOT-524) bacterial suspension in saliva ion buffer; conditions: up to 24 h
[9] = PAN-5 (Bifidobacterium dentium HOT-588) bacterial suspension in saliva ion buffer; conditions: up to 24 h
[10] = PAN-8 (Bifidobacterium dentium HOT-588) bacterial suspension in saliva ion buffer; conditions: up to 24 h
[11] = PAN-0 (Streptococcus pneumoniae HOT-734) bacterial suspension in saliva ion buffer; conditions: up to 24 h
[12] = PAN-18 (Bifidobacterium dentium HOT-588) bacterial suspension in saliva ion buffer; conditions: up to 24 h
[13] = PAN-19 (Bifidobacterium dentium HOT-588) bacterial suspension in saliva ion buffer; conditions: up to 24 h
[14] = PAN-23 (Bifidobacterium dentium HOT-588) bacterial suspension in saliva ion buffer; conditions: up to 24 h
[15] = WSAN-14 (Bifidobacterium longum HOT-B54) bacterial suspension in saliva ion buffer; conditions: up to 24 h
[16] = WSAN-16 (Bifidobacterium longum HOT-B54) bacterial suspension in saliva ion buffer; conditions: up to 24 h
[17] = WSAN-24 (Bifidobacterium longum HOT-B54) bacterial suspension in saliva ion buffer; conditions: up to 24 h
[18] = WSA-10 (Staphylococcus epidermidis HOT-601) bacterial suspension in saliva ion buffer; conditions: up to 24 h
[19] = mammalian enzymes; conditions: cited from earlier work
[20] = tested on: pepsin; experiment: pepsin (1 µg/ml in 0.1 M HCl, pH 1.0); conditions: up to 24 h
[21] = tested on: trypsin; experiment: trypsin (1 µg/ml in 50 mM ammonium bicarbonate, pH 8.0); conditions: up to 24 h
[22] = strain WSA-8 (R. aeria) in saliva ion buffer (OD620 1.2, pH 7.0); conditions: Rothia aeria, up to 5 h
[23] = tested on: chymotrypsin; experiment: chymotrypsin (1 µg/ml in 50 mM ammonium bicarbonate, pH 8.0); conditions: up to 24 h
[24] = Bifidobacterium dentium HOT-588 (strain PAN-5)
[25] = Bifidobacterium dentium HOT-588 (strain PAN-8)
[26] = Bifidobacterium dentium HOT-588 (strain PAN-18)
[27] = Bifidobacterium dentium HOT-588 (strain PAN-19)
[28] = Bifidobacterium dentium HOT-588 (strain PAN-23)
[29] = Bifidobacterium longum HOT-B54 (strain WSAN-14)
[30] = Bifidobacterium longum HOT-B54 (strain WSAN-16)
[31] = Bifidobacterium longum HOT-B54 (strain WSAN-24)
[32] = Rothia aeria HOT-188 (strain WSA-8)
[33] = Rothia mucilaginosa HOT-681 (strain WSA-2B)
[34] = Rothia mucilaginosa HOT-681 (strain WSA-26)
[35] = Staphylococcus epidermidis HOT-601 (strain WSA-10)
[36] = Streptococcus mitis HOT-677 (strain WSA-7A)
[37] = Streptococcus pneumoniae HOT-734 (strain PAN-0)
[38] = Veilonella atypica HOT-524 (strain WSAN-25)

Row | Substance | not cleaved [2, 24] | not cleaved [2, 25] | not cleaved [2, 26] | not cleaved [2, 27] | not cleaved [2, 28] | not cleaved [2, 29] | not cleaved [2, 30] | not cleaved [2, 31] | not cleaved [2, 32] | not cleaved [2, 33] | not cleaved [2, 34] | not cleaved [2, 35] | not cleaved [2, 36] | not cleaved [2, 37] | not cleaved [2, 38] | cleaved bond [3] | not cleaved [4] | not cleaved [5] | not cleaved [6] | cleaved bond [1] | also measured
1 | Cbz-Gln-Gln-Pro-pNA | − after 24 h | − after 24 h | − after 24 h | − after 24 h | − after 24 h | − after 24 h | − after 24 h | − after 24 h | − (not cleaved) after 24 h | − (not cleaved) after 24 h | − (not cleaved) after 24 h | − after 24 h | − after 24 h | − after 24 h | − after 24 h | P-pNA | − after 24 h incubation | − after 24 h incubation | − after 24 h incubation | P-pNA | not cleaved [7]: − after 24 h incubation; not cleaved [8]: − after 24 h incubation; not cleaved [9]: − after 24 h incubation; not cleaved [10]: − after 24 h incubation; not cleaved [11]: − after 24 h incubation; not cleaved [12]: − after 24 h incubation; not cleaved [13]: − after 24 h incubation; not cleaved [14]: − after 24 h incubation; not cleaved [15]: − after 24 h incubation; not cleaved [16]: − after 24 h incubation; not cleaved [17]: − after 24 h incubation; not cleaved [18]: − after 24 h incubation
2 | Cbz-Lys-Pro-Gln-pNA | – | – | – | – | – | – | – | – | – | – | – | – | – | – | – | – | – | – | – | – | cleaved bond [4]: Q-pNA; cleaved bond [6]: Q-pNA
3 | Cbz-Pro-Pro-Phe-pNA | − after 24 h | − after 24 h | − after 24 h | − after 24 h | − after 24 h | − after 24 h | − after 24 h | − after 24 h | − (not cleaved) after 24 h | − (not cleaved) after 24 h | − (not cleaved) after 24 h | − after 24 h | − after 24 h | − after 24 h | − after 24 h | F-pNA | − after 24 h incubation | − after 24 h incubation | − after 24 h incubation | F-pNA | not cleaved [7]: − after 24 h incubation; not cleaved [8]: − after 24 h incubation; not cleaved [9]: − after 24 h incubation; not cleaved [10]: − after 24 h incubation; not cleaved [11]: − after 24 h incubation; not cleaved [12]: − after 24 h incubation; not cleaved [13]: − after 24 h incubation; not cleaved [14]: − after 24 h incubation; not cleaved [15]: − after 24 h incubation; not cleaved [16]: − after 24 h incubation; not cleaved [17]: − after 24 h incubation; not cleaved [18]: − after 24 h incubation
4 | FLQPQQPFPQQPQQPYPQQPQQPFPQ | – | – | – | – | – | – | – | – | – | – | – | – | – | – | – | – | – | – | – | – | not cleaved [19]: resistant to degradation by mammalian enzymes; not cleaved [20]: resistant to degradation; sampled at t = 24 h; not cleaved [21]: resistant to degradation; sampled at t = 24 h; cleaved bond [22]: Y-P, major; not cleaved [23]: resistant to degradation; sampled at t = 24 h
5 | LQLQPFPQPQLPYPQPQLPYPQPQLPYPQPQPF | – | – | – | – | – | – | – | – | – | – | – | – | – | – | – | – | – | – | – | – | not cleaved [19]: resistant to degradation by mammalian enzymes; not cleaved [20]: resistant to degradation; sampled at t = 24 h; not cleaved [21]: resistant to degradation; sampled at t = 24 h; cleaved bond [22]: F-P, minor; also recorded: P-Q, minor; also recorded: Q-L, major; also recorded: Y-P, major; also recorded: Q-P, major; not cleaved [23]: resistant to degradation; sampled at t = 24 h

More lines, main results first:

Row | not cleaved [2, 24] | not cleaved [2, 25] | not cleaved [2, 26] | not cleaved [2, 27] | not cleaved [2, 28] | not cleaved [2, 29] | not cleaved [2, 30] | not cleaved [2, 31] | not cleaved [2, 32] | not cleaved [2, 33] | not cleaved [2, 34] | not cleaved [2, 35] | not cleaved [2, 36] | not cleaved [2, 37] | not cleaved [2, 38] | cleaved bond [3] | not cleaved [4] | not cleaved [5] | not cleaved [6] | Substance | cleaved bond [1] | also measured
6 | − after 24 h | − after 24 h | − after 24 h | − after 24 h | − after 24 h | − after 24 h | − after 24 h | − after 24 h | − (not cleaved) after 24 h | − (not cleaved) after 24 h | − (not cleaved) after 24 h | − after 24 h | − after 24 h | − after 24 h | − after 24 h | P-pNA | − after 24 h incubation | − after 24 h incubation | − after 24 h incubation | Cbz-Pro-Phe-Pro-pNA | P-pNA | not cleaved [7]: − after 24 h incubation; not cleaved [8]: − after 24 h incubation; not cleaved [9]: − after 24 h incubation; not cleaved [10]: − after 24 h incubation; not cleaved [11]: − after 24 h incubation; not cleaved [12]: − after 24 h incubation; not cleaved [13]: − after 24 h incubation; not cleaved [14]: − after 24 h incubation; not cleaved [15]: − after 24 h incubation; not cleaved [16]: − after 24 h incubation; not cleaved [17]: − after 24 h incubation; not cleaved [18]: − after 24 h incubation
7 | – | – | – | – | – | – | – | – | – | – | – | – | – | – | – | Q-pNA | – | – | – | benzyloxycarbonyl-YPQ-paranitroanilide | Q-pNA | cleaved bond [4]: Q-pNA; cleaved bond [5]: Q-pNA; cleaved bond [6]: Q-pNA; cleaved bond [7]: Q-pNA

Source: publication PMC3177827 (PLoS ONE, 2011)
